Data on four compounds can be found in ChEMBL document CHEMBL1144580, “Screening of alpha-helical peptide ligands controlling a calcineurin-phosphatase activity” (Bioorg Med Chem Lett, 2007).

The species entered for test [1] is Homo sapiens. Briefly: Inhibition of calcineurin phosphatase activity in presence of calmodulin at 1 uM.
For test [2], the species on record is Homo sapiens. The experiment in a line: Inhibition of calcineurin phosphatase activity in absence of calmodulin at 1 uM.

The source made the active and inactive calls. The rule behind the calls is not given here.

Regarding `CC(C)C[C@H](NC(=O)[C@H](CCCCN)NC(=O)[C@H](CC(C)C)NC(=O)[C@H](CC(C)C)NC(=O)[C@H](CCCCN)NC(=O)[C@H](Cc1ccc(O)cc1)NC(=O)[C@H](Cc1ccccc1)NC(=O)[C@H](CC(C)C)NC(=O)[C@H](CCCNC(=N)N)NC(=O)[C@H](C)NC(=O)[C@H](CC(C)C)NC(=O)[C@H](CCCCN)NC(=O)[C@H](CCCCN)NC(=O)[C@@H](N)CC(C)C)C(=O)O`, the result in the test filed under Homo sapiens [1] was Active. The result in the test filed under Homo sapiens [2] was inactive.

In the case of H-LKKLIRLAYKLLKL-OH, in the test filed under Homo sapiens [1], the Activity entry is “Dose-dependent effect”. For the same compound, the outcome in the test filed under Homo sapiens [2] was inactive.

Take H-LKKLIRLFTKLLKL-OH: the Activity entry in the test listed under Homo sapiens [1] is “Dose-dependent effect”. For the same compound, in the test filed under Homo sapiens [2], the outcome was inactive.

H-LKKLLKLLKKLLKL-OH: the Activity entry in the test filed under Homo sapiens [1] is “Dose-dependent effect”. The outcome in the test filed under Homo sapiens [2] was inactive.
